Experimental data taken from PMC5048095, “Agroindustrial Wastes as Alternative for Lipase Production by Candida viswanathii under Solid-State Cultivation: Purification, Biochemical Properties, and Its Potential for Poultry Fat Hydrolysis” (Enzyme Research, 2016).

Test system: T1, purified C. viswanathii lipase
T1 construct: native extracellular lipase from solid-state culture, Octyl Sepharose purified
Assay: p-nitrophenol release at […] nm, Lineweaver-Burk plot
Type: biochemical, Candida viswanathii
Conditions: 0.0 to 1.0 mM p-NPP; pH and temperature of the kinetic assay not given; free enzyme

In the case of `CCCCCCCCCCCCCCCC(=O)Oc1ccc([N+](=O)[O-])cc1` [p-NPP, p-nitrophenyl palmitate], the Km is reported as 120 µM.
